# Assay: Thermal stability (purity by GC-FID after heating with absorbent)
# Format: physicochemical
# Details: initial purity 97.7%
# Description: The samples were stirred for 24 h at 50° C. and then analyzed for purity by GC-FID. The % purity EX-6 initially was 97.7%. Shown in Table 2 below are the % purity after the thermal stability test. All of the results are within error of the test method.
structure (smiles),measurement,setting,value
"CO/C(=N\C(F)(F)C(F)(F)C(F)(F)F)C(F)(F)C(F)(F)F [EX-6, methyl 2,2,3,3,3-pentafluoro-N-(perfluoropropyl)propanimidate]",Purity (%) after thermal stability test,"100 mg 4 Angstrom Molecular Sieves, 1 g stirred 24 h at 50° C.",98.0%
same,Purity (%) after thermal stability test,"100 mg Activated Carbon, 1 g stirred 24 h at 50° C.",98.2%
same,Purity (%) after thermal stability test,"100 mg Basic Alumina, 1 g stirred 24 h at 50° C.",98.0%
same,Purity (%) after thermal stability test,"100 mg K2CO3, 1 g stirred 24 h at 50° C.",97.9%
same,Purity (%) after thermal stability test,"100 mg Silica Gel, 1 g stirred 24 h at 50° C.",97.9%
same,Purity (%) after thermal stability test,"No absorbent, 1 g stirred 24 h at 50° C.",97.7%
